In US20020136817A1 (priority 1999, published 2002):
Counter-ions that a name gives are not always drawn. Each block holds one molecule with its values, some of them ahead of it.

How the values were obtained:
calcium kidney stones = assay: Urinary risk of forming calcium kidney stones in individuals with oxalocalcium kidney stones, before and 15 days after treatment start; type: in vivo, human; settings: for drop of the risk of forming calcium stones: 15 days after treatment start, citrate 6.48 g/day (Group II, potassium citrate tablets), phytate 120 mg/day (Group III, dietetic supplement)
Protocol: These individuals have been divided into three groups: 19 individuals with kidney stones (Group I), 38 individuals with kidney stones (Group II) and 17 individuals with kidney stones (Group III). The urinary risk to form calcium kidney stones was evaluated for each individual before being subjected to any pharmacological treatment. […] 15 days after treatment starting, the urinary risk of forming calcium kidney stones was evaluated again for each individual.

[1] = cited from earlier work

SMILES: O=C(O)CC(O)(CC(=O)O)C(=O)O [citrate, potassium citrate, reference compound]
drop of the risk of forming calcium stones (calcium kidney stones): 52%

effect on urine pH (calcium kidney stones; treatment of calcium kidney stones, compared with citrate): does not cause increases of the urine pH
SMILES: O=P(O)(O)O[C@H]1[C@H](OP(=O)(O)O)[C@@H](OP(=O)(O)O)[C@H](OP(=O)(O)O)[C@@H](OP(=O)(O)O)[C@H]1OP(=O)(O)O [phytate, inositol hexaphosphate]
drop of the risk of forming calcium stones (calcium kidney stones): 50%
levels of phytates in urine and blood without intake ([1]; after 10 days without a phytate intake): drop to practically undetectable values
maximum urinary excretions as share of the total intake ([1]; diet supplemented with products rich in phytates): 1-5%
intake above which the amount excreted in urine does not increase ([1]; dose-dependent urinary excretion): 20.9 mg/kg of body weight
